Tests used:
[1] = system: adult rats with preexisting elastase-induced emphysema; conditions: cited from earlier work
[2] = system: mice exposed to cigarette smoke; conditions: cited from earlier work
[3] = system: adults with hereditary emphysema; conditions: cited from earlier work
[4] = system: patients with COPD; conditions: extrafine, 1.1 microns in diameter, HFA pMDI; cited from earlier work
[5] = Aerosol performance of dry powder inhaler formulation, next generation Impactor; type: physicochemical; conditions: inhaler operated at 15 L/min
Procedure: Inhaled corticosteroids (ICS) mometasone furoate or fluticasone furoate are prepared with volume median particle size of less than 5 microns. Calcitriol (1, 25-Dihydroxycholecalciferol) is also prepared in crystalline form and subsequently micronized to a volume median particle size of less than 5 microns. The ICS's are incorporated at appropriately 30-50% of the commercial ICS dose when administered via a passive dry powder inhaler, due to the efficiency of the invention delivered by a dry powder inhaler (DPI) available from MicroDose Therapeutx, Inc. One preferred embodiment utilizes an ICS dosed once daily, i.e. mometasone furoate or fluticasone furoate, to coincide with a once daily dose of the vitamin D receptor agonist. This combination product is designed to reverse corticoidsteroid resistance (CR) by adding the protective anti-inflammatory effects of calcitriol with the local anti-inflamatory effects of these ICS's. The inhaler is operated at 15 L/min and for both medicaments, the aerosol performance with a fine particle fraction (% of particles exiting the inhaler that are less than 5.8 microns) is […] with at least 10% of particles in the less than 2.1 micron size range when tested with a next generation Impactor.
Calcitriol is a synthetic vitamin D analog and has been used as a pharmaceutical as well as a nutraceutical. […]

[6] = system: cell line cultured from patients with corticosteroid resistant asthma; conditions: after addition of vitamin D; promotion of regulatory T cells; cited from earlier work
[7] = system: asthmatic adults; conditions: cited from earlier work
[8] = system: Airway smooth muscle; conditions: cited from earlier work

## CC1=C(/C=C/C(C)=C/C=C/C(C)=C/C(=O)O)C(C)(C)CCC1 [ATRA, All Trans Retinoic Acid]
[1]
  alveolus formation: induces alveolus formation
[2]; mice exposed to cigarette smoke
  formation of pulmonary emphysema: diminishes the formation of pulmonary emphysema
[2]; mice with emphysema produced by cigarette smoke
  distance between alveolar walls: decreases the distance between alveolar walls
[3]
  trial outcome: not been successful

## CCC(=O)OCC(=O)[C@@]1(OC(=O)CC)[C@@H](C)C[C@H]2[C@@H]3CCC4=CC(=O)C=C[C@]4(C)[C@@]3(Cl)[C@@H](O)C[C@@]21C [beclomethasone dipropionate]
[4]
  air trapping: significant reduction in air trapping

## C=C1/C(=C\C=C2/CCC[C@]3(C)[C@@H]([C@H](C)CCCC(C)(C)O)CC[C@@H]23)C[C@@H](O)C[C@@H]1O [calcitriol, 1, 25-Dihydroxycholecalciferol]
[5]
  particles in the less than 2.1 micron size range: at least 10%

## vitamin D
[6]
  steroid sensitivity: increased steroid sensitivity
[7]
  mean increase in FEV1 for every 1 ng/mL increase in systemic vitamin D: 22.7 mL
[8]
  airway smooth muscle proliferation: slow
